Test results taken from patent US11959086B2, “Dual transit peptides for targeting polypeptides” (BASF AGRO B.V., priority 2016, dated 2024).

Assays:
[1] = system: Arabidopsis plants, construct RHOMA_PPO_wt_tpFNR (SEQ ID NO 123); assay: Tolerance of transgenic T1 Arabidopsis plants to herbicides, greenhouse (Tolerance Factor); format: in vivo, Arabidopsis thaliana
[2] = system: Arabidopsis plants, construct hemG_tpFNR (SEQ ID NO 117); assay: as above; format: in vivo, Arabidopsis thaliana
[3] = system: Arabidopsis plants, construct CHLSP_PPO_wt_tpFNR (SEQ ID NO 128); assay: as above; format: in vivo, Arabidopsis thaliana
[4] = system: Arabidopsis plants, construct hemF_tpsAMATU_PPO2 (SEQ ID NO 116); assay: as above; format: in vivo, Arabidopsis thaliana
[5] = system: Wildtype/non-transgenic Arabidopsis thaliana; assay: Herbicide injury evaluation of Arabidopsis plants, greenhouse; format: in vivo; conditions: scale 0-100
[6] = system: transgenic Arabidopsis thaliana, transgene SEQ ID NO 119; assay: as above; format: in vivo; conditions: Table 3, scale 0-100
[7] = system: Arabidopsis plants, construct hemG_tplAMATU_PPO2 (SEQ ID NO 118); assay: Tolerance of transgenic T1 Arabidopsis plants to herbicides, greenhouse (Tolerance Factor); format: in vivo, Arabidopsis thaliana
[8] = system: Arabidopsis plants, construct RHOMA_PPO_F420V_tpFNR (SEQ ID NO 124); assay: as above; format: in vivo, Arabidopsis thaliana
[9] = system: Arabidopsis plants, construct hemF_tpFNR (SEQ ID NO 114); assay: as above; format: in vivo, Arabidopsis thaliana
[10] = system: Arabidopsis plants, construct OPITE_PPO_wt_tpFNR (SEQ ID NO 121); assay: as above; format: in vivo, Arabidopsis thaliana
[11] = system: transgenic Arabidopsis thaliana, transgene SEQ ID NO 120; assay: Herbicide injury evaluation of Arabidopsis plants, greenhouse; format: in vivo; conditions: Table 4, scale 0-100
[12] = system: Arabidopsis plants, construct hemG_tpsAMATU_PPO2 (SEQ ID NO 119); assay: Tolerance of transgenic T1 Arabidopsis plants to herbicides, greenhouse (Tolerance Factor); format: in vivo, Arabidopsis thaliana
[13] = system: transgenic Arabidopsis thaliana, transgene SEQ ID NO 117; assay: Herbicide injury evaluation of Arabidopsis plants, greenhouse; format: in vivo; conditions: Table 3, scale 0-100
[14] = system: transgenic Arabidopsis thaliana, transgene SEQ ID NO 118; assay: as above; format: in vivo; conditions: scale 0-100
[15] = system: Arabidopsis plants, construct hemF_tplAMATU_PPO2 (SEQ ID NO 115); assay: Tolerance of transgenic T1 Arabidopsis plants to herbicides, greenhouse (Tolerance Factor); format: in vivo, Arabidopsis thaliana
[16] = system: empty vector-transformed leaf discs; assay: PSII yield inhibition in tobacco leaf discs (chlorophyll fluorescence, imaging PAM); format: cell-based; conditions: Nicotiana benthamiana, 48 h, read-out: IC50 of PSII yield inhibition
[17] = system: Arabidopsis plants, construct RHOMA_PPO_wt_tpAMATU_PPO2 (SEQ ID NO 127); assay: Tolerance of transgenic T1 Arabidopsis plants to herbicides, greenhouse (Tolerance Factor); format: in vivo, Arabidopsis thaliana
[18] = system: transgenic Arabidopsis thaliana, transgene SEQ ID NO 128; assay: Herbicide injury evaluation of Arabidopsis plants, greenhouse; format: in vivo; conditions: Table 3, scale 0-100
[19] = system: transgenic Arabidopsis thaliana, transgene SEQ ID NO 121; assay: as above; format: in vivo; conditions: Table 3, scale 0-100

Structure (SMILES): CC(C)N(C)S(=O)(=O)NC(=O)c1cc(-n2c(=O)cc(C(F)(F)F)n(C)c2=O)c(F)cc1Cl [Saflufenacil, saflufenacil]
- Tolerance Factor [1]: 1
- Tolerance Factor [2]: 332
- Tolerance Factor [3]: 640
- Tolerance Factor [4]: 1
- Herbicide injury evaluation 14 days after herbicide treatment ([5]; Table 3, 50 g ai/ha + 1% MSO): 100
- Herbicide injury evaluation 14 days after herbicide treatment ([5]; Table 3, 150 g ai/ha + 1% MSO): 100
- Herbicide injury evaluation 14 days after herbicide treatment ([5]; Table 3, 300 g ai/ha + 1% MSO): 100
- Herbicide injury evaluation 14 days after herbicide treatment ([5]; Table 4, 50 g ai/ha + 1% MSO): 100
- Herbicide injury evaluation 14 days after herbicide treatment ([5]; Table 4, 150 g ai/ha + 1% MSO): 100
- Herbicide injury evaluation 14 days after herbicide treatment ([5]; Table 4, 300 g ai/ha + 1% MSO): 100
- Herbicide injury evaluation 14 days after herbicide treatment ([6]; SEQ ID NO 119 A, 50 g ai/ha + 1% MSO): 100
- Herbicide injury evaluation 14 days after herbicide treatment ([6]; SEQ ID NO 119 A, 150 g ai/ha + 1% MSO): 100
- Herbicide injury evaluation 14 days after herbicide treatment ([6]; SEQ ID NO 119 A, 300 g ai/ha + 1% MSO): 100
- Herbicide injury evaluation 14 days after herbicide treatment ([6]; SEQ ID NO 119 B, 50 g ai/ha + 1% MSO): 100
- Herbicide injury evaluation 14 days after herbicide treatment ([6]; SEQ ID NO 119 B, 150 g ai/ha + 1% MSO): 100
- Herbicide injury evaluation 14 days after herbicide treatment ([6]; SEQ ID NO 119 B, 300 g ai/ha + 1% MSO): 100
- Tolerance Factor [7]: 2200
- Tolerance Factor [8]: 1
- Tolerance Factor [9]: 1
- Tolerance Factor [10]: 14
- Herbicide injury evaluation 14 days after herbicide treatment ([11]; SEQ ID NO 120 J, 50 g ai/ha + 1% MSO): 80
- Herbicide injury evaluation 14 days after herbicide treatment ([11]; SEQ ID NO 120 J, 150 g ai/ha + 1% MSO): 83
- Herbicide injury evaluation 14 days after herbicide treatment ([11]; SEQ ID NO 120 J, 300 g ai/ha + 1% MSO): 85
- Herbicide injury evaluation 14 days after herbicide treatment ([11]; SEQ ID NO 120 M, 50 g ai/ha + 1% MSO): 95
- Herbicide injury evaluation 14 days after herbicide treatment ([11]; SEQ ID NO 120 M, 150 g ai/ha + 1% MSO): 93
- Herbicide injury evaluation 14 days after herbicide treatment ([11]; SEQ ID NO 120 M, 300 g ai/ha + 1% MSO): 88
- Tolerance Factor [12]: 1
- Herbicide injury evaluation 14 days after herbicide treatment ([13]; SEQ ID NO 117 C, 50 g ai/ha + 1% MSO): 100
- Herbicide injury evaluation 14 days after herbicide treatment ([13]; SEQ ID NO 117 C, 150 g ai/ha + 1% MSO): 98
- Herbicide injury evaluation 14 days after herbicide treatment ([13]; SEQ ID NO 117 C, 300 g ai/ha + 1% MSO): 97
- Herbicide injury evaluation 14 days after herbicide treatment ([13]; SEQ ID NO 117 I, 50 g ai/ha + 1% MSO): 94
- Herbicide injury evaluation 14 days after herbicide treatment ([13]; SEQ ID NO 117 I, 150 g ai/ha + 1% MSO): 99
- Herbicide injury evaluation 14 days after herbicide treatment ([13]; SEQ ID NO 117 I, 300 g ai/ha + 1% MSO): 95
- Herbicide injury evaluation 14 days after herbicide treatment ([14]; Table 3, SEQ ID NO 118 Q, 50 g ai/ha + 1% MSO): 55
- Herbicide injury evaluation 14 days after herbicide treatment ([14]; Table 3, SEQ ID NO 118 Q, 150 g ai/ha + 1% MSO): 58
- Herbicide injury evaluation 14 days after herbicide treatment ([14]; Table 3, SEQ ID NO 118 Q, 300 g ai/ha + 1% MSO): 68
- Herbicide injury evaluation 14 days after herbicide treatment ([14]; Table 3, SEQ ID NO 118 R, 50 g ai/ha + 1% MSO): 5
- Herbicide injury evaluation 14 days after herbicide treatment ([14]; Table 3, SEQ ID NO 118 R, 150 g ai/ha + 1% MSO): 65
- Herbicide injury evaluation 14 days after herbicide treatment ([14]; Table 3, SEQ ID NO 118 R, 300 g ai/ha + 1% MSO): 48
- Herbicide injury evaluation 14 days after herbicide treatment ([14]; Table 4, SEQ ID NO 118 Q, 50 g ai/ha + 1% MSO): 63
- Herbicide injury evaluation 14 days after herbicide treatment ([14]; Table 4, SEQ ID NO 118 Q, 150 g ai/ha + 1% MSO): 63
- Herbicide injury evaluation 14 days after herbicide treatment ([14]; Table 4, SEQ ID NO 118 Q, 300 g ai/ha + 1% MSO): 65
- Herbicide injury evaluation 14 days after herbicide treatment ([14]; Table 4, SEQ ID NO 118 R, 50 g ai/ha + 1% MSO): 38
- Herbicide injury evaluation 14 days after herbicide treatment ([14]; Table 4, SEQ ID NO 118 R, 150 g ai/ha + 1% MSO): 45
- Herbicide injury evaluation 14 days after herbicide treatment ([14]; Table 4, SEQ ID NO 118 R, 300 g ai/ha + 1% MSO): 60
- Tolerance Factor [15]: 1
- IC50 [16]: 110 nM
- Tolerance Factor [17]: 1
- Herbicide injury evaluation 14 days after herbicide treatment ([18]; SEQ ID NO 128 D, 50 g ai/ha + 1% MSO): 93
- Herbicide injury evaluation 14 days after herbicide treatment ([18]; SEQ ID NO 128 D, 150 g ai/ha + 1% MSO): 97
- Herbicide injury evaluation 14 days after herbicide treatment ([18]; SEQ ID NO 128 D, 300 g ai/ha + 1% MSO): 97
- Herbicide injury evaluation 14 days after herbicide treatment ([18]; SEQ ID NO 128 E, 50 g ai/ha + 1% MSO): 97
- Herbicide injury evaluation 14 days after herbicide treatment ([18]; SEQ ID NO 128 E, 150 g ai/ha + 1% MSO): 97
- Herbicide injury evaluation 14 days after herbicide treatment ([18]; SEQ ID NO 128 E, 300 g ai/ha + 1% MSO): 97
- Herbicide injury evaluation 14 days after herbicide treatment ([19]; SEQ ID NO 121 G, 50 g ai/ha + 1% MSO): 100
- Herbicide injury evaluation 14 days after herbicide treatment ([19]; SEQ ID NO 121 G, 150 g ai/ha + 1% MSO): 100
- Herbicide injury evaluation 14 days after herbicide treatment ([19]; SEQ ID NO 121 G, 300 g ai/ha + 1% MSO): 100
- Herbicide injury evaluation 14 days after herbicide treatment ([19]; SEQ ID NO 121 H, 50 g ai/ha + 1% MSO): 100
- Herbicide injury evaluation 14 days after herbicide treatment ([19]; SEQ ID NO 121 H, 150 g ai/ha + 1% MSO): 100
- Herbicide injury evaluation 14 days after herbicide treatment ([19]; SEQ ID NO 121 H, 300 g ai/ha + 1% MSO): 100
